Like-named read-outs stand apart in the source and are kept apart here.
Experiments:
SZ95 sebocytes [1] = assay: Inhibition of lipid synthesis in AA-stimulated SZ95 sebocytes (Nile Red staining); type: cell-based, human
Experimental: (§1) The immortalized human sebocyte cell line, SZ95, was maintained in culture as described in Zouboulis, C. C. et al., J. Invest. Dermatol. (1999), Vol. 113, pp. 1011-1020. Lipid synthesis was stimulated by treating SZ95 cells with arachidonic acid (AA). For measurement of lipid production and lipid inhibition studies, test compounds were dissolved in dimethylsulfoxide (DMSO) and added at the desired concentration in 96-well microtiter plates. The cells were then cultured for up to 72 hours before the plates were washed 3 times with PBS and a final volume of 200 μL PBS/well was added. To stain cell neutral lipids, 5 μL of Nile Red solution (0.2 mg/mL dissolved in DMSO) was added to each well and incubated for a minimum of 60 minutes. Plate fluorescence was then quantified using a fluorometric plate reader (excitation wavelength: 490 nm; emission wavelength: 590 nm). Inhibition of lipid levels by the test compound was expressed as the % reduction of the fluorescence of AA-stimulated cells in the presence of the test compound relative to the values obtained for the unstimulated control cells. Cell viability was measured by utilizing the conversion of a tetrazolium reagent (MTS) to a colored-formazan product by live cells. For these assays, the test compound was dissolved in dimethylsulfoxide (DMSO) and added at the desired concentration to cells seeded into 96-well plates. The cells were cultured for 48 hours in the presence of the test compound before the plates were washed 3 times with PBS. A final volume of 100 μL of culture medium per well was added. Twenty μL of MTS solution (0.2 mg/mL in sterile PBS) was added to each well and incubated for a minimum of 60 minutes until the desired optical density was reached. The color development of the wells was measured using a plate reader at an absorbance of […]. Effect on cell viability by the test compound was expressed as the % reduction of the absorbance for AA-stimulated cells in the presence of the test compound relative to the values obtained for the untreated control cells.

IL-1β = assay: Supernatant IL-1β level of activated PBMC (flow cytometry-based); type: cell-based; details: Homo sapiens; PBMC stimulated with IFN-γ plus LPS, 10% FBS, 48 hours; read-out: IL-1β supernatant level IC50 (estimated)
Experimental: (§2) As described herein, the inhibitory effect of TOFA on fatty acid synthesis is well known. However, the potential influence of TOFA on cellular production of inflammatory mediators or immune cell proliferation is unreported. To address this question, PBMC were isolated from different donors by density gradient centrifugation. Different amounts of TOFA were added to PBMC cultures in the presence of two different stimuli sets. One activating stimulus was phytohemagglutinin (PHA), a plant-derived mitogen that stimulates proliferation and cytokine synthesis by T lymphocytes. These cell preparations were also activated using a combination of interferon-γ (IFN-γ) and lipopolysaccharide (LPS) to stimulate cytokine production by the monocyte fraction within PBMC preparations. Following a 48 hour culture period, cell supernatants were obtained for simultaneous determination of cytokine levels using a flow cytometry-based quantification method. […] Cell viability was assessed using a colorimetric assay based on the conversion of 3-(4,5-dimethylthiazol-2-yl)-5-(3-carboxymethoxyphenyl)-2-(4-sulfophenyl)-2H-tetrazolium, inner salt (MTS) into a soluble formazan product by mitochondrial dehydrogenase of viable cells. Cell proliferation was determined by adding ^3H-thymidine to the cultures and determining its level of incorporation into DNA using scintillation counting.

PBMC = assay: Viability of activated PBMC (MTS assay); type: cell-based, human
Experimental: as §2

IL-8 = assay: Supernatant IL-8 level of activated PBMC (flow cytometry-based); type: cell-based; details: Homo sapiens; PBMC stimulated with IFN-γ plus LPS, 10% FBS, 48 hours; read-out: IL-8 supernatant level IC50 (estimated)
Experimental: as §2

LNCaP cells = assay: Lipid accumulation in DHT-stimulated LNCaP cells (Nile Red flow cytometry, Oil Red O); type: cell-based, human
Experimental: The human prostate LNCaP adenocarcinoma cell line was obtained from American Type Culture Collection. Cells were maintained in RPMI 1640 medium containing 10% fetal calf serum (FCS), 4 mM Glutamax, 1 mM sodium pyruvate, 1 mM HEPES, penicillin (100 U/mL) and streptomycin (100 μg/mL). For experiments, approximately 10,000 cells/well were plated in 6-well tissue culture plates in RPMI 1640 10% FBS for 72 hours. To minimize potential serum androgen effects, medium containing 5% charcoal/dextran-stripped FCS was added for 72 hours. Lipid synthesis was then stimulated by addition of the androgen dihydrotestosterone (DHT) at 50 nM. TOFA was solubilized in DMSO and added at various concentrations in RPMI 1640 containing 5% charcoal/dextran-treated. Cells were incubated in the presence of these factors for 96 hours at 37° C. Lipid accumulation was subsequently quantified by Nile Red staining and flow cytometric analysis. The flow cytometer laser excitation was set at 488 nm and Nile Red fluorescence collected through a 585 nm band pass filter. A total of 10,000 events were collected per sample. […] Cell Nile Red fluorescence was also visualized through a fluorescence microscope.
Cellular lipid expression was also determined using Oil Red O staining. […] Lipid accumulation was visualized by fluorescence microscopy.

3T3-L1 cells = assay: 3T3-L1 adipocyte differentiation and lipid accumulation (Oil Red O); type: cell-based; details: mouse 3T3-L1 adipocytes, FIGS. 8-10
Experimental: Mouse 3T3-L1 preadipocytes (American Type Culture Collection) were passaged and maintained in Dulbecco's modified Eagles Medium (DMEM) supplemented with 10% fetal calf serum (FCS), 1 mM sodium pyruvate, penicillin (100 U/ml)/streptomycin (100 μg/ml) and 4 mM Glutamax (Gibco/Life Technologies). To initiate adipocyte differentiation, 3T3-L1 cells were plated at confluency into culture plates or dishes and grown in supplemented DMEM for two days post-confluency. Initiation medium consisted of DMEM with 0.5 mM 3-isobutyl-1-methylxanthine, 1 μM dexamethasone and human insulin at 10 μg/ml. Progression medium contained insulin (10 μg/ml) which replaced the initiation medium after 48-72 hours. Cellular lipid was imaged by Oil Red O staining as described in Example 2 for LNCaP cells.

TNF-α = assay: Supernatant TNF-α level of activated PBMC (flow cytometry-based); type: cell-based; details: Homo sapiens, 48 h, PBMC stimulated with IFN-γ plus LPS, 10% FBS, read-out: TNF-α supernatant level IC50 (estimated)
Experimental: as §2

IL-6 = assay: Supernatant IL-6 level of activated PBMC (flow cytometry-based); type: cell-based; details: Homo sapiens; PBMC stimulated with IFN-γ plus LPS, 10% FBS, 48 hours; read-out: IL-6 supernatant level IC50 (estimated)
Experimental: as §2

SZ95 sebocytes [2] = assay: SZ95 sebocyte viability (MTS assay); type: cell-based, human; details: AA-stimulated SZ95 cells, FIG. 2B
Experimental: as §1, with “To stain cell neutral lipids, 5 μL of Nile Red solution (0.2 mg/mL dissolved in DMSO) was added to each well and incubated for a minimum of 60 minutes.” left out, “For these assays, the test compound was dissolved in dimethylsulfoxide (DMSO) and added at the desired concentration to cells seeded into 96-well plates. The cells were cultured for 48 hours in the presence of the test compound before the plates were washed 3 times with PBS. A final volume of 100 μL of culture medium per well was added. Twenty μL of MTS solution (0.2 mg/mL in sterile PBS) was added to each well and incubated for a minimum of 60 minutes until the desired optical density was reached.” left out

[3] = oral, moderate to severe acne patients, at 12 weeks; cited from earlier work

Compound: CC1=C(/C=C/C(C)=C/C=C/C(C)=C\C(=O)O)C(C)(C)CCC1 [13-cis retinoic acid, 13-cis-retinoic acid, reference compound]
- IC50 (SZ95 sebocytes [1]; SZ95 cells, short term cultures, read-out: IC50 against lipid synthesis): ~40 µM

Compound: CCCCCCCCCCCCCCOc1ccc(C(=O)O)o1 [TOFA, 5-(tetradecyloxy)-2-furancarboxylic acid]
- IC50 (IL-1β): > 90 µM
- IC50 (PBMC; Homo sapiens, PBMC stimulated with PHA (2 μg/mL), 10% FBS, 48 hours, one row per experiment (donor)): > 90 µM
- effect on the viability of PBMC (PBMC; PBMC stimulated with PHA or IFN-γ plus LPS): no effect on the viability
- IC50 (IL-8): > 90 µM
- inhibition of lipid synthesis observed by fluorescence microscopy (SZ95 sebocytes [1]; AA-stimulated SZ95 cells, FIG. 1): dose-dependent inhibition of lipid synthesis
- IC50 (SZ95 sebocytes [1]; Homo sapiens, AA-stimulated SZ95 cells, FIG. 2A, read-out: estimated IC50 upon lipid synthesis (nile red fluorescence intensity)): ~3 µM
- lipid levels by Oil Red O staining and fluorescence microscopy (LNCaP cells; FIG. 11): dose dependent reduction in lipid levels
- reduction of lipid levels (flow cytometry/fluorescence) (LNCaP cells; TOFA at 25 μM, FIG. 12): > 50%
- effect on cellular differentiation and lipid accumulation (3T3-L1 cells): dose-dependent effects on cellular differentiation and lipid accumulation
- IC50 (TNF-α): > 90 µM
- IC50 (IL-6): > 90 µM
- TOFA concentration with viability loss (SZ95 sebocytes [2]): greater than 50 μM

Compound: CC(c1cc2ccccc2s1)N(O)C(N)=O (stereo not shown) [Zileuton]
- reduction in inflammatory lesions [3]: 71%
- reduction of sebum lipids [3]: 65%

Compound: CCCCC/C=C\C/C=C\C/C=C\C/C=C\CCCC(=O)O [arachidonic acid (AA), arachidonic acid, reference compound]
- increase of SZ95 sebocyte lipid levels (SZ95 sebocytes [1]; 96-well microtiter plate format): approximately 5 fold
